According to US20250199015A1, “CYCLIN-DEPENDENT KINASE 2 INHIBITORS FOR MEDICAL TREATMENT” (INCYCLIX BIO, LLC, priority 2022, published 2025):
Read-outs that look alike come from different tables or passages of the source.

Columns and labels:
[1] = tested on: FUOV-1 cells; experiment: CellTiter-Glo cell proliferation assay; format: cell-based; conditions: Homo sapiens, 144 h; 6 days; read-out: IC50 in FUOV1 cells
Procedure: The Kuramochi human ovarian carcinoma cell line was grown in RPMI-1640/1× Glutamax/10% fetal bovine serum and the FUOV-1 human ovarian carcinoma cell line was grown in DMEM/F12/1× Glutamax/10% fetal bovine serum and both were plated at 1,000 cells/well in Corning 96 well white wall/clear bottom tissue culture treated plates. […] Plates were removed from incubator at each specified timepoint and treated with CellTiter-Glo (Promega, Inc) following manufacturer specifications. Plates were then read on CLARIOstar luminometer with 1 sec/well integration. Results were converted to Microsoft Excel and transferred to GraphPad Prism for Analysis (FIG. 16A-B).

[2] = tested on: pRb in Kuramochi cells; experiment: Western blot pRb; format: cell-based, human; conditions: 30-1000 nM, 24 hours
Procedure: An independent human ovarian carcinoma cell line, Kuramochi human ovarian carcinoma, was grown in RPMI-1640/1× Glutamax/10% fetal bovine serum and was plated at 300,000 cells/well in Corning 6 well tissue culture treated plates. Cells were incubated at 37° C. for 24 hours prior to addition of 2 replicates of 0.1% DMSO control and 1 replicate for each treatment. […] Cells were collected by washing each well twice with cold PBS, then scraping cells in the presence of 150 μL cold RIPA with protease and phosphatase inhibitors. Lysates were clarified by centrifugation at 14 kxg for 10 min at 4° C. and supernatants transferred to clean tubes. A BCA assay was performed to determine the protein concentration of each lysate. 30 μg of protein was mixed with sample buffer and reducing agent before being run on a 4-12% SDS-PAGE. Protein was transferred to a nitrocellulose membrane and blocked with LI-COR blocking buffer for 1 hour. Membranes were incubated overnight in primary antibody at 4° C. Following 3 washes with TBST, membranes were incubated for 45 minutes in LI-COR secondary antibodies. Following 2 washes in TBST, and one TBS wash, membranes were scanned using a LI-COR OdysseyCLx. Image studio was used for image analysis.

[3] = tested on: MKN1 cells; experiment: Cell cycle by EdU flow cytometry with washout; format: cell-based, human; conditions: 300 nM, 24 hr post-initial treatment (0 hr after washout)
Procedure: The MKN1 human stomach carcinoma cell line was grown in RPMI-1640/1× Glutamax/10% heat inactivated fetal bovine serum and was plated at 300,000 cells/well in 6 cm tissue culture treated plates. […] At 24 hours, the remaining plates were rinsed with media before un-treated media was added back. Cells were collected at the indicated times, with 10 μM EdU added for the last hour (FIG. 21A). Cells were collected and fixed in 1% paraformaldehyde. Cells were incubated with Pacific blue azide dye as described by Thermo Scientific. Cells were then incubated with FarRed dye and RNase. Cells were analyzed on a BD Celesta and data compiled using FloJo and GraphPad. Approximately 95% of MKN1 cells were arrested at G1 at 24 hr post-initial treatment (0 hr after washout) (FIG. 21B). […] At 48 hr post-washout, MKN1 cells were synchronized.

[4] = tested on: MKN-1 cell loaded Hollow Fibers; experiment: Mouse hollow fiber assay (CellTiter Glo); format: in vivo, mice; conditions: 75, 100, 150 mg/kg twice daily, Day 16
Procedure: (§1) The mouse hollow fiber assay was conducted using three tumor cell lines, OVCAR-3 (ovarian), MKN-1 (gastric), and HCC-1569 (breast), 1e7 OVCAR-3, 5e6 MKN-1, and 1e7 HCC-1569 cells were loaded into Hollow Fibers, placed in cell culture dishes containing RPMI-1640 with 20% FCS and 1% penicillin/streptomycin, and were equilibrated in an incubator at 37 C, 5% CO2 overnight. On Day 0, three fibers were implanted in two different compartments: subcutaneous and intraperitoneal of twenty-four female NMRI nude mice ages 4-5 weeks. […] Female NMRI nude mice were implanted both subcutaneously and intraperitoneally with HCC-1569, MKN1, and OVCAR3 tumor cell-loaded Hollow Fibers on Day 0. The number of animals alive on Day 0 (implantation) and on Day 16 (necropsy) in each group is shown in parentheses in the legend.
MKN-1 cell loaded Hollow Fibers were implanted both subcutaneously and intraperitoneally into female NMRI nude mice on Day 0. Hollow Fibers were collected during necropsy on Day 16 and analyzed using a CellTiter Glo® assay.

[5] = tested on: OVCAR-3 cell loaded Hollow Fibers; experiment: Mouse hollow fiber assay (CellTiter Glo); format: in vivo, mice; conditions: 75, 100, 150 mg/kg twice daily, Day 16
Procedure: as §1
OVCAR-3 cell loaded Hollow Fibers were implanted both subcutaneously and intraperitoneally into female NMRI nude mice on Day 0. Hollow Fibers were collected during necropsy on Day 16 and analyzed using a CellTiter Glo® assay.

[6] = target: T1, human OCT2 (Homo sapiens, UniProt O15244); experiment: SLC transporter inhibition in HEK293 cells; format: in vitro ADME
T1 construct: expressed in transfected cells; host or cells: HEK293
T1 sequence (O15244 1-555): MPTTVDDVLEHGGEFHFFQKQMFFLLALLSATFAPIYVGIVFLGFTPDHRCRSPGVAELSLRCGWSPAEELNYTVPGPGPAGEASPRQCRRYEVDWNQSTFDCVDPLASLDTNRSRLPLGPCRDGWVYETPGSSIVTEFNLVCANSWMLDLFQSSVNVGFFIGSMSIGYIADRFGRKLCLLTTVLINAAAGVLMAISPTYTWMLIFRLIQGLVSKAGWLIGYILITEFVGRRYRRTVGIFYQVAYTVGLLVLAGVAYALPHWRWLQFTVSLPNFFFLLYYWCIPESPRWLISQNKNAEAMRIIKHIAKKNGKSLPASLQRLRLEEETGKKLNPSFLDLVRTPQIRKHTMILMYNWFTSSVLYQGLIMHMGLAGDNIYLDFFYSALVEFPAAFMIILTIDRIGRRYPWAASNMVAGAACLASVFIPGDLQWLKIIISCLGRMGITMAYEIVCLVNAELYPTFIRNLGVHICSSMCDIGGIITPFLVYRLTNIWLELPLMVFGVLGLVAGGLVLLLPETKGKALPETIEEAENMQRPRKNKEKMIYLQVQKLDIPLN

NS(=O)(=O)c1ccc(Nc2ncc3cc4n(c3n2)C2(CCCCC2)C(=O)NN4)cc1 [Compound I]
IC50 [1]: 0.016 µM | pRb levels [2]: decreases pRb levels in a dose-dependent manner | cells arrested at G1 [3]: Approximately 95% | tumor bioluminescence signal (CellTiter Glo) of Hollow Fibers [4]: only observed in mice administered Compound I intraperitoneally at 75 mg/kg twice per day | tumor bioluminescence signal (CellTiter Glo) of Hollow Fibers [5]: significant reduction | Maximum Percent inhibition ([6]; OCT2, HEK293 cells): 49% | IC50 ([6]; OCT2, HEK293 cells, estimated, read-out: IC50): 17.1 µM | IC50 ([6]; read-out: OCT2 IC50): 17.1 µM
